# According to paper PMC7660650, “Chemical Starting Matter for HNF4α Ligand Discovery and Chemogenomics” (International Journal of Molecular Sciences, 2020):
# “And” between values parts separate entries of the source, which are not always exact repeats. Identical values can stand only once.
# Molecular target: T1, Gal4-HNF4α (human HNF4α LBD) (Homo sapiens, UniProt P41235)
# T1 construct: uniprot entry: P41235-1, residues 142-377; expressed in transfected cells; host or cells: HEK293T
# T1 sequence (P41235 142-377): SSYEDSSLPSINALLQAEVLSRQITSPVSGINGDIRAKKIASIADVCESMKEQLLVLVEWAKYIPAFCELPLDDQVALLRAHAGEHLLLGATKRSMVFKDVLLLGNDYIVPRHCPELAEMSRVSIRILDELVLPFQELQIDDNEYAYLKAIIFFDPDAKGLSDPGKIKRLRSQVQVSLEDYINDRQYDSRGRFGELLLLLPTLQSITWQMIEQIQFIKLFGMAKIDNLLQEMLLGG
# Experiment: Hybrid Gal4-HNF4α reporter gene assay in transiently transfected HEK293T cells
# Type: cell-based
# Settings: Table S1, primary screening, 50 µM
row,SMILES,HNF4a-screening_activity_(mean_of_n=2)
1,"OCCOc1cccc2[nH]ccc12 [Prestw-Frag-1595, OCCOc1cccc2[nH]ccc12]",0.8145 and 1.05
2,"CCN1CCCC1CNC(=O)c1ccc(N)cc1 (stereo not drawn) [Prestw-Frag-1632, CCN1CCCC1CNC(=O)c1ccc(N)cc1]",0.8541
3,"NCCc1c[nH]c2ccc(O)cc12 [Prestw-Frag-1643, NCCc1c[nH]c2ccc(O)cc12]",1.007
4,"Oc1ccc2[nH]ccc2c1 [Prestw-Frag-1645, Oc1ccc2[nH]ccc2c1]",1.016
5,"Cc1cc(N)no1 [Prestw-Frag-1647, Cc1cc(N)no1]",0.9773
6,"Nc1ccnn1-c1ccccc1 [Prestw-Frag-1648, Nc1ccnn1-c1ccccc1]",1.023
7,"OC(c1ccccc1)(c1ccccc1)C1CCNCC1 [Prestw-Frag-1654, OC(C1CCNCC1)(c1ccccc1)c1ccccc1]",1.142 and 1.152
8,"NC(=O)CN1C(=O)c2ccccc2C1=O [Prestw-Frag-1661, NC(=O)CN1C(=O)c2ccccc2C1=O]",1.028
9,"Cc1ccc(S(=O)(=O)NC(N)=O)cc1 [Prestw-Frag-1667, Cc1ccc(cc1)S(=O)(=O)NC(N)=O]",1.077
10,"O=c1[nH]nc2ccccn12 [Prestw-Frag-1673, O=c1[nH]nc2ccccn12]",1.045
11,"O=C(O)C(CO)c1ccccc1 (stereo not drawn) [Prestw-Frag-1686, OCC(C(O)=O)c1ccccc1]",1.109
12,"CC(N)COc1ccccc1 (stereo not drawn) [Prestw-Frag-1691, CC(N)COc1ccccc1]",0.7151 and 1.122
13,"c1cc2c(s1)CCNC2 [Prestw-Frag-1694, C1Cc2sccc2CN1]",1.028 and 1.127
14,"Clc1cccc(CN2CCNCC2)c1 [Prestw-Frag-1700, Clc1cccc(CN2CCNCC2)c1]",1.014 and 1.092
15,"Clc1ccc(-c2cncnc2)cc1 [Prestw-Frag-1704, Clc1ccc(cc1)-c1cncnc1]",0.9459 and 1.223
16,"CCCC(=O)Nc1ccc(O)c(C(C)=O)c1 [Prestw-Frag-1716, CCCC(=O)Nc1ccc(O)c(c1)C(C)=O]",0.8359
17,"CCCC(=O)Nc1cccc(C(C)=O)c1 [Prestw-Frag-1717, CCCC(=O)Nc1cccc(c1)C(C)=O]",0.9496 and 0.8871
18,"c1ccc2c(c1)CNc1ccccc1C2 [Prestw-Frag-1722, C1Nc2ccccc2Cc2ccccc12]",1.196 and 1.047
19,"COc1cc(C(N)=O)cc(OC)c1OC [Prestw-Frag-1731, COc1cc(cc(OC)c1OC)C(N)=O]",0.8442
20,"CCN(CC)CCOC(=O)c1ccccc1 [Prestw-Frag-1735, CCN(CC)CCOC(=O)c1ccccc1]",0.9109 and 1.027
21,"O=C1CCOc2ccccc21 [Prestw-Frag-1740, O=C1CCOc2ccccc12]",0.9806
22,"Clc1ccc(C(c2ccccc2)N2CCNCC2)cc1 (stereo not drawn) [Prestw-Frag-1741, Clc1ccc(cc1)C(N1CCNCC1)c1ccccc1]",1.086
23,"CC(=O)NCc1cccnc1 [Prestw-Frag-1745, CC(=O)NCc1cccnc1]",0.9231 and 1.026

row,SMILES,HNF4a-screening_activity_(mean_of_n=2)
1,"O=C(NCc1cccnc1)c1ccc(O)cc1 [Prestw-Frag-1747, Oc1ccc(cc1)C(=O)NCc1cccnc1]",0.7115 and 0.9722
2,"CC(=O)Nc1ncc([N+](=O)[O-])s1 [Prestw-Frag-1750, CC(=O)Nc1ncc(s1)[N+]([O-])=O]",1.04 and 0.8827
3,"O=C(O)CCCc1ccc(-c2ccccc2)cc1 [Prestw-Frag-1767, OC(=O)CCCc1ccc(cc1)-c1ccccc1]",0.6264
4,"Fc1cccc(F)c1N1CCNCC1 [Prestw-Frag-1806, Fc1cccc(F)c1N1CCNCC1]",0.9867 and 1.428
5,"COc1ccc(OCC(N)=O)cc1 [Prestw-Frag-1812, COc1ccc(OCC(N)=O)cc1]",0.9996 and 1.207
6,"c1ccc(C(c2ccccc2)N2CCCNCC2)cc1 [Prestw-Frag-1817, C1CNCCN(C1)C(c1ccccc1)c1ccccc1]",0.7059 and 1.011
7,"NC(=O)COc1ccc(Cl)cc1 [Prestw-Frag-1833, NC(=O)COc1ccc(Cl)cc1]",1.468 and 0.8655
8,"Cc1ccccc1NC(=O)C(C)N (stereo not drawn) [Prestw-Frag-1856, CC(N)C(=O)Nc1ccccc1C]",1.062 and 1.114
9,"CS(=O)(=O)Nc1ccccc1Oc1ccccc1 [Prestw-Frag-1861, CS(=O)(=O)Nc1ccccc1Oc1ccccc1]",1.046 and 0.7818
10,"COC(=O)C(O)(c1ccccc1)C1CCCCC1 (stereo not drawn) [Prestw-Frag-1867, COC(=O)C(O)(C1CCCCC1)c1ccccc1]",1.91 and 1.155
11,"O=C1Nc2ccccc2Nc2ccccc21 [Prestw-Frag-1904, O=C1Nc2ccccc2Nc2ccccc12]",1.665 and 0.9141
12,"CCCOc1ccccc1C(=N)N [Prestw-Frag-1910, CCCOc1ccccc1C(N)=N]",1.045 and 1.109
13,"NCCOC(c1ccc(F)cc1)c1ccc(F)cc1 [Prestw-Frag-1925, NCCOC(c1ccc(F)cc1)c1ccc(F)cc1]",1.095 and 1.195
14,"CC(C)(C)NCC(O)c1ccccc1 (stereo not drawn) [Prestw-Frag-1929, CC(C)(C)NCC(O)c1ccccc1]",1.143
15,"OCCCN1CCN(c2ccccc2)CC1 [Prestw-Frag-1944, OCCCN1CCN(CC1)c1ccccc1]",1.133
16,"OCCN1CCN(c2ccccc2)CC1 [Prestw-Frag-1945, OCCN1CCN(CC1)c1ccccc1]",1.061
17,"CN1CCN(c2ccccc2)CC1 [Prestw-Frag-1946, CN1CCN(CC1)c1ccccc1]",1.048
18,"O=C(CCN1CCCCC1)c1ccccc1 [Prestw-Frag-1953, O=C(CCN1CCCCC1)c1ccccc1]",0.8568
19,"NS(=O)(=O)c1ccc(Cl)cc1 [Prestw-Frag-1977, NS(=O)(=O)c1ccc(Cl)cc1]",0.8584
20,"CCN(CC)CCOc1ccc(C(C)=O)cc1 [Prestw-Frag-2005, CCN(CC)CCOc1ccc(cc1)C(C)=O]",1.006
21,"O=C(O)C1(c2ccccc2)CCCC1 [Prestw-Frag-2049, OC(=O)C1(CCCC1)c1ccccc1]",0.9983
22,"NS(=O)(=O)c1ccc(C(=O)O)cc1 [Prestw-Frag-2123, NS(=O)(=O)c1ccc(cc1)C(O)=O]",0.9355
23,"CC(C)NCC(O)c1ccccc1 (stereo not drawn) [Prestw-Frag-2168, CC(C)NCC(O)c1ccccc1]",1.078

row,SMILES,HNF4a-screening_activity_(mean_of_n=2)
1,"COc1ccc(OC)c(C(C)O)c1 (stereo not drawn) [Prestw-Frag-2208, COc1ccc(OC)c(c1)C(C)O]",1.098
2,"COc1ccc(CN2CCNCC2)cc1 [Prestw-Frag-2212, COc1ccc(CN2CCNCC2)cc1]",1.195
3,"CS(=O)(=O)c1ccc(CO)cc1 [Prestw-Frag-2234, CS(=O)(=O)c1ccc(CO)cc1]",0.954
4,"CC(O)(c1ccccc1)c1ccccn1 (stereo not drawn) [Prestw-Frag-2237, CC(O)(c1ccccc1)c1ccccn1]",0.9394
5,"OC(c1ccccc1)c1ccccn1 (stereo not drawn) [Prestw-Frag-2238, OC(c1ccccc1)c1ccccn1]",0.8728
6,"CCCCOc1cc(C(=O)OC)ccc1N [Prestw-Frag-2253, CCCCOc1cc(ccc1N)C(=O)OC]",0.8932
7,"Nc1nc2ccccc2o1 [Prestw-Frag-2256, Nc1nc2ccccc2o1]",0.8277
8,"NC(=O)c1nc[nH]c1N [Prestw-Frag-2268, NC(=O)c1nc[nH]c1N]",0.9961
9,"OCc1ccncc1 [Prestw-Frag-2303, OCc1ccncc1]",0.9833
10,"N=C(N)CSCc1ccccc1 [Prestw-Frag-2348, NC(=N)CSCc1ccccc1]",1.134
11,"Clc1ccc(CNc2ccccn2)cc1 [Prestw-Frag-2356, Clc1ccc(CNc2ccccn2)cc1]",1.16
12,"O=C1c2ccccc2CN1c1ccccc1 [Prestw-Frag-2360, O=C1N(Cc2ccccc12)c1ccccc1]",1.345
13,"CCC(=O)Nc1ccc(CC(=O)O)cc1 [Prestw-Frag-2362, CCC(=O)Nc1ccc(CC(O)=O)cc1]",0.9958
14,"NC(=O)C(c1ccccc1)c1ccccc1 [Prestw-Frag-2366, NC(=O)C(c1ccccc1)c1ccccc1]",0.8824
15,"O=C(O)CCC(=O)Nc1ccccc1 [Prestw-Frag-2383, OC(=O)CCC(=O)Nc1ccccc1]",0.9265
16,"COC(=O)C(O)c1ccccc1 (stereo not drawn) [Prestw-Frag-2423, COC(=O)C(O)c1ccccc1]",1.193
17,"CCN(CCCCO)C(C)Cc1ccc(OC)cc1 (stereo not drawn) [Prestw-Frag-2440, CCN(CCCCO)C(C)Cc1ccc(OC)cc1]",1.361
18,"Nc1ccccn1 [Prestw-Frag-2443, Nc1ccccn1]",1.112
19,"COCCOC(=O)c1ccc(N)cc1 [Prestw-Frag-2453, COCCOC(=O)c1ccc(N)cc1]",1.565
20,"O=C1CCc2ccccc2N1 [Prestw-Frag-2464, O=C1CCc2ccccc2N1]",1.314
21,"Nc1ccccc1S(N)(=O)=O [Prestw-Frag-2473, Nc1ccccc1S(N)(=O)=O]",1.395
22,"CCOc1ccccn1 [Prestw-Frag-2477, CCOc1ccccn1]",1.372
23,"COC(=O)C(O)(c1ccccc1)C1CCCC1 (stereo not drawn) [Prestw-Frag-2484, COC(=O)C(O)(C1CCCC1)c1ccccc1]",1.411
